Measurements published in patent US20190192699A1, “NUCLEAR IMAGING AND RADIOTHERAPEUTICS AGENTS TARGETING CARBONIC ANHYDRASE IX AND USES THEREOF” (THE JOHNS HOPKINS UNIVERSITY, priority 2016, published 2019).
Entries after “also recorded” stand apart in the source; their conditions may differ.

How the values were obtained:
[1] = test system: SK-RC-52 xenografts; assay: Radio-therapy of [177Lu]XYIMSR-01, tumor growth; assay type: in vivo, mice; settings: 11.1 MBq (300 μCi) and 18.5 MBq (500 μCi) i.v., n=4
Experimental: (§1) Cell Lines and Mouse Models. Animal experiments were performed in accordance with protocols approved by the Johns Hopkins Animal Care and Use Committee (ACUC). Six-week-old female NOD/SCID mice were purchased from the Animal Resource Core of the Sidney Kimmel Comprehensive Cancer Center of Johns Hopkins and were subcutaneously injected in the lower left flank or upper right flank with 1×10^6 SK-RC-52 cells in RPMI 1640 GlutaMAX™ media (Life Technologies, Frederick, Md.) supplemented with 1% fetal bovine serum (FBS). Mice were monitored for tumor size and used for SPECT/CT imaging when the size of the tumor reached 100 mm^3.
Radio-therapy of [^177Lu]XYIMSR-01. Mice bearing SK-RC-52 xenografts at lower left flank were injected intravenously with PBS, 11.1 MBq (300 μCi) and 18.5 MBq (500 μCi) of [^177Lu]XYIMSR-01 in 200 μL of PBS (n=4). Size of the tumors was measured twice a week after the injection. […] The P-values were 0.042 and 0.031 for the 11.1 and […] doses, respectively.

[2] = target: CAIX (Homo sapiens, UniProt Q16790); assay: In vitro uptake of [177Lu]XYIMSR-01; assay type: cell-based; parameters: host or cells: ccRCC tumours in patients
[3] = test system: CAIX-expressing SK-RC-52 tumors; assay: SPECT/CT imaging of [177Lu]XYIMSR-01; assay type: in vivo, mice; settings: intravenous
Experimental: as §1
SPECT/CT imaging of [^177Lu]XYIMSR-01. Mice were injected with 1.7 mCi of [^177Lu]XYIMSR-01 in 250 uL of PBS (pH7.0) intravenously, anesthetized under 3% isofluorane prior to being placed on the scanner bed and kept warm with an external light source while being scanned. Isofluorane levels were decreased to 1% throughout the scanning process in order to ensure mouse survival. Imaging of mice was then carried out using a CT-equipped Gamma Medica-Ideas SPECT scanner (Northridge, Calif.). A CT scan was performed at the end of each SPECT scan for anatomical co-registration. CT and SPECT scans were performed at 1, 4, 8, 24, and 48 hrs post injection of the [^177Lu]XYIMSR-01. Obtained data sets were subsequently reconstructed using the provided Gamma Medica-Ideas software. […]

[4] = test system: SK-RC-52 xenografts; assay: Biodistribution of [111In]XYIMSR-01 and [177Lu]XYIMSR-01; assay type: in vivo, mice
Experimental: as §1
Biodistribution of [^111In]XYIMSR-01 and [^177Lu]XYIMSR-01. Mice bearing SK-RC-52 xenografts at lower left flank were injected intravenously with 740 kBq (20 μCi) of [^111In]XYIMSR-01, or [^177Lu]XYIMSR-01 in 200 μL of PBS. For competitive blocking, same tumor bearing mice were injected with 740 kBq (20 μCi) of [^111In]XYIMSR-01 and 200 nmole of 1 in 200 μL of PBS. At 1 h, 4 h, 8 h, 24 h and 48 h post-injection, mice were sacrificed by cervical dislocation and the blood was immediately collected by cardiac puncture. Heart, lungs, pancreas, spleen, fat, brain, muscle, small intestines, liver, stomach, kidney, urinary bladder, and tumor were collected. Each organ was weighed and the tissue radioactivity was measured with an automated gamma counter (1282 Compugamma CS, Pharmacia/LKBNuclear, Inc., Mt. Waverly, Vic. Australia). The percentage of injected dose per gram of tissue (% ID/g) was calculated by comparison with samples of a standard dilution of the initial dose. All measurements were corrected for radioactive decay.
Data were expressed as mean±standard deviation (SD). Prism software (GraphPAD, San Diego, Calif.) was used to determine statistical significance. Statistical significance was calculated using a paired t test. P-values […] were considered significant.

[5] = 24 hr + Block (200 nmole of 1 co-injected)
[6] = 48 hr + Block (200 nmole of 1 co-injected)

## CC(CCC(=O)N[C@@H](CC(=O)N[C@@H](CC(=O)N[C@@H](CCCCn1cc(CCCC(=O)Nc2nnc(S(N)(=O)=O)s2)nn1)C(=O)NCCOCCOCCNC(=O)CN1CCN(CC(=O)[O-])CCN(CC(=O)[O-])CCN(CC(=O)[O-])CC1)C(=O)O)C(=O)O)(c1ccc(O)cc1)c1ccc(O)cc1.[177Lu+3] [[^177Lu]XYIMSR-01]
[1]
  tumor growth compared with control non-treated mice: Delays in tumor growth; also recorded: significant therapeutic effect in controlling tumor growth
[2]
  uptake in vitro: CAIX specific uptake in vitro
[3]
  SPECT/CT tumor imaging finding: radiotracer uptake in tumor as early as 1 h post-injection; also recorded: tumor visualization by 1 h post-injection
[4]; 1 hr post-injection
  Biodistribution: Bladder: 26.55 ± 11.08 % ID/g
  Biodistribution: Blood: 0.55 ± 0.06 % ID/g
  Biodistribution: Brain: 0.49 ± 0.08 % ID/g
  Biodistribution: Fat: 1.07 ± 0.58 % ID/g
  Biodistribution: Heart: 3.59 ± 0.73 % ID/g
  Biodistribution: Kidney: 40.77 ± 6.68 % ID/g
  Biodistribution: Liver: 4.15 ± 0.39 % ID/g
  Biodistribution: Lung: 23.72 ± 6.49 % ID/g
  Biodistribution: Muscle: 1.42 ± 0.40 % ID/g
  Biodistribution: Pancreas: 2.03 ± 0.25 % ID/g
  Biodistribution: Small intestine: 6.11 ± 0.68 % ID/g
  Biodistribution: Spleen: 0.29 ± 0.07 % ID/g
  Biodistribution: Stomach: 12.20 ± 1.66 % ID/g
  Biodistribution: Tumor: 26.91 ± 6.06 % ID/g
  Tumor/Blood ratio: 47.9 ± 13.4
  Tumor/Kidney ratio: 0.6 ± 0.2
  Tumor/Muscle ratio: 18.8 ± 5.0
[4]; 4 hr post-injection
  Biodistribution: Bladder: 6.60 ± 3.66 % ID/g
  Biodistribution: Blood: 0.18 ± 0.02 % ID/g
  Biodistribution: Brain: 0.33 ± 0.04 % ID/g
  Biodistribution: Fat: 0.56 ± 0.14 % ID/g
  Biodistribution: Heart: 1.52 ± 0.54 % ID/g
  Biodistribution: Kidney: 19.17 ± 2.82 % ID/g
  Biodistribution: Liver: 1.79 ± 0.44 % ID/g
  Biodistribution: Lung: 10.35 ± 1.86 % ID/g
  Biodistribution: Muscle: 0.65 ± 0.19 % ID/g
  Biodistribution: Pancreas: 0.99 ± 0.19 % ID/g
  Biodistribution: Small intestine: 2.64 ± 0.17 % ID/g
  Biodistribution: Spleen: 0.15 ± 0.03 % ID/g
  Biodistribution: Stomach: 6.06 ± 1.57 % ID/g
  Biodistribution: Tumor: 26.28 ± 4.25 % ID/g
  Tumor/Blood ratio: 150.3 ± 34.6
  Tumor/Kidney ratio: 1.4 ± 0.4
  Tumor/Muscle ratio: 43.7 ± 16.8
[4]; 8 hr post-injection
  Biodistribution: Bladder: 6.00 ± 3.52 % ID/g
  Biodistribution: Blood: 0.16 ± 0.05 % ID/g
  Biodistribution: Brain: 0.44 ± 0.08 % ID/g
  Biodistribution: Fat: 0.46 ± 0.17 % ID/g
  Biodistribution: Heart: 1.49 ± 0.59 % ID/g
  Biodistribution: Kidney: 18.99 ± 6.14 % ID/g
  Biodistribution: Liver: 1.87 ± 0.77 % ID/g
  Biodistribution: Lung: 8.87 ± 3.30 % ID/g
  Biodistribution: Muscle: 0.47 ± 0.18 % ID/g
  Biodistribution: Pancreas: 1.03 ± 0.50 % ID/g
  Biodistribution: Small intestine: 3.67 ± 0.93 % ID/g
  Biodistribution: Spleen: 0.29 ± 0.05 % ID/g
  Biodistribution: Stomach: 6.15 ± 2.65 % ID/g
  Biodistribution: Tumor: 27.48 ± 4.32 % ID/g
  Tumor/Blood ratio: 178.6 ± 36.6
  Tumor/Kidney ratio: 1.5 ± 0.3
  Tumor/Muscle ratio: 65.0 ± 19.0
[4]; [5]
  Biodistribution: Bladder: 0.73 ± 0.55 % ID/g
  Biodistribution: Blood: 0.04 ± 0.02 % ID/g
  Biodistribution: Brain: 0.04 ± 0.01 % ID/g
  Biodistribution: Fat: 0.03 ± 0.03 % ID/g
  Biodistribution: Heart: 0.08 ± 0.04 % ID/g
  Biodistribution: Kidney: 1.54 ± 1.44 % ID/g
  Biodistribution: Liver: 0.46 ± 0.34 % ID/g
  Biodistribution: Lung: 0.73 ± 0.58 % ID/g
  Biodistribution: Muscle: 0.03 ± 0.01 % ID/g
  Biodistribution: Pancreas: 0.05 ± 0.03 % ID/g
  Biodistribution: Small intestine: 0.18 ± 0.07 % ID/g
  Biodistribution: Spleen: 0.38 ± 0.32 % ID/g
  Biodistribution: Stomach: 0.21 ± 0.07 % ID/g
  Biodistribution: Tumor: 1.70 ± 0.79 % ID/g
  Tumor/Blood ratio: 42.0 ± 20.9
  Tumor/Kidney ratio: 1.4 ± 0.6
  Tumor/Muscle ratio: 58.6 ± 25.3
[4]; 24 hr post-injection
  Biodistribution: Bladder: 1.29 ± 1.10 % ID/g
  Biodistribution: Blood: 0.02 ± 0.01 % ID/g
  Biodistribution: Brain: 0.28 ± 0.10 % ID/g
  Biodistribution: Fat: 0.05 ± 0.04 % ID/g
  Biodistribution: Heart: 0.28 ± 0.14 % ID/g
  Biodistribution: Kidney: 3.11 ± 1.59 % ID/g
  Biodistribution: Liver: 0.47 ± 0.21 % ID/g
  Biodistribution: Lung: 1.48 ± 0.59 % ID/g
  Biodistribution: Muscle: 0.10 ± 0.05 % ID/g
  Biodistribution: Pancreas: 0.16 ± 0.07 % ID/g
  Biodistribution: Small intestine: 0.96 ± 0.32 % ID/g
  Biodistribution: Spleen: 0.20 ± 0.07 % ID/g
  Biodistribution: Stomach: 1.02 ± 0.56 % ID/g
  Biodistribution: Tumor: 12.51 ± 3.02 % ID/g
  Tumor/Blood ratio: 607.4±200.7
  Tumor/Kidney ratio: 4.5±1.4
  Tumor/Muscle ratio: 128.4±25.4
[4]; [6]
  Biodistribution: Bladder: 0.28 ± 0.09 % ID/g
  Biodistribution: Blood: 0.04 ± 0.07 % ID/g
  Biodistribution: Brain: 0.02 ± 0.00 % ID/g
  Biodistribution: Fat: 0.02 ± 0.01 % ID/g
  Biodistribution: Heart: 0.04 ± 0.01 % ID/g
  Biodistribution: Kidney: 0.39 ± 0.05 % ID/g
  Biodistribution: Liver: 0.23 ± 0.04 % ID/g
  Biodistribution: Lung: 0.18 ± 0.05 % ID/g
  Biodistribution: Muscle: 0.01 ± 0.00 % ID/g
  Biodistribution: Pancreas: 0.02 ± 0.00 % ID/g
  Biodistribution: Small intestine: 0.05 ± 0.01 % ID/g
  Biodistribution: Spleen: 0.15 ± 0.06 % ID/g
  Biodistribution: Stomach: 0.09 ± 0.02 % ID/g
  Biodistribution: Tumor: 0.65 ± 0.10 % ID/g
  Tumor/Blood ratio: 42.7 ± 23.7
  Tumor/Kidney ratio: 1.7 ± 0.3
  Tumor/Muscle ratio: 62.5 ± 34.5
[4]; 48 hr post-injection
  Biodistribution: Bladder: 0.20 ± 0.01 % ID/g
  Biodistribution: Blood: 0.04 ± 0.01 % ID/g
  Biodistribution: Brain: 0.17 ± 0.03 % ID/g
  Biodistribution: Fat: 0.03 ± 0.01 % ID/g
  Biodistribution: Heart: 0.12 ± 0.17 % ID/g
  Biodistribution: Kidney: 0.76 ± 0.11 % ID/g
  Biodistribution: Liver: 0.19 ± 0.03 % ID/g
  Biodistribution: Lung: 0.90 ± 0.05 % ID/g
  Biodistribution: Muscle: 0.04 ± 0.01 % ID/g
  Biodistribution: Pancreas: 0.06 ± 0.01 % ID/g
  Biodistribution: Small intestine: 0.20 ± 0.05 % ID/g
  Biodistribution: Spleen: 0.13 ± 0.04 % ID/g
  Biodistribution: Stomach: 0.35 ± 0.04 % ID/g
  Biodistribution: Tumor: 5.82 ± 2.14 % ID/g
  Tumor/Blood ratio: 200.2 ± 101.7
  Tumor/Kidney ratio: 7.1 ± 1.8
  Tumor/Muscle ratio: 141.5 ± 71.7
